Like-named read-outs stand apart in the source and are kept apart here. Some results are limits rather than exact numbers.

The target of assay [1] is Human α2δ-1 subunit of Cav2.2 calcium channel (Homo sapiens, UniProt P54289). The assay is described as follows: Human α2δ-1 subunit of Cav2.2 calcium channel assay ([3H]-Gabapentin). The format is binding. Here is the method:
Human α2δ-1 Subunit of Cav2.2 Calcium Channel Assay
Human α2δ-1 enriched membranes (2.5 μg) were incubated with 15 nM of radiolabeled [3H]-Gabapentin in assay buffer containing Hepes-KOH 10 mM, pH 7.4. NSB (non specific binding) was measured by adding 10 μM pregabalin. After 60 min incubation at 27° C., binding reaction was terminated by filtering through Multiscreen GF/C (Millipore) presoaked in 0.5% polyethyleneimine in Vacuum Manifold Station, followed by 3 washes with ice-cold filtration buffer containing 50 mM Tris-HCl, pH 7.4. Filter plates were dried at 60° C. for 1 hour and 30 μl of scintillation cocktail were added to each well before radioactivity reading. Readings were performed in a Trilux 1450 Microbeta radioactive counter (Perkin Elmer), i.e. Human α2δ-1 enriched membranes (2.5 μg) were incubated with 15 nM of radiolabeled [3H]-Gabapentin in assay buffer containing Hepes-KOH 10 mM, pH 7.4. NSB (non specific binding) was measured by adding 10 μM pregabalin. The binding of the test compound was measured at five different concentrations. After 60 min incubation at 27° C., binding reaction was terminated by filtering through Multiscreen GF/C (Millipore) presoaked in 0.5% polyethyleneimine in Vacuum Manifold Station, followed by 3 washes with ice-cold filtration buffer containing 50 mM Tris-HCl, pH 7.4. Filter plates were dried at 60° C. for 1 hour and 30 μl of scintillation cocktail were added to each well before radioactivity reading. Readings were performed in a Trilux 1450 Microbeta radioactive counter (Perkin Elmer).

The target of another assay is T1, human μ-opioid receptor (Homo sapiens, UniProt P35372).
T1 construct: expressed in transfected cells; host or cells: CHO-K1
T1 sequence (P35372 whole entry): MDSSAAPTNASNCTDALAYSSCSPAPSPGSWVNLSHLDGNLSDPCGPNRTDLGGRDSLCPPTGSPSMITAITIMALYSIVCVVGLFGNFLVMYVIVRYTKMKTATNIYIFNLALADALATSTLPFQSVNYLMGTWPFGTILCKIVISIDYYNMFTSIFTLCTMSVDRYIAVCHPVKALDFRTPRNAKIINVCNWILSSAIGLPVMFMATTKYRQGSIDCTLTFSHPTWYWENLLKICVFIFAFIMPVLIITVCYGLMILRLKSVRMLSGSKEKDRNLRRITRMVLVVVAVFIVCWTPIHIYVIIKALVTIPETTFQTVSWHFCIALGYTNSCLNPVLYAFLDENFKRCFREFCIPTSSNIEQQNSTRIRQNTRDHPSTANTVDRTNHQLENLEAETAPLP
The assay is described as follows: Human μ-opioid receptor radioligand assay ([3H]-DAMGO). The format is binding. The method, then: Human μ-Opioid Receptor Radioligand Assay
To investigate binding properties of test compounds to human μ-opioid receptor, transfected CHO-K1 cell membranes and [^3H]-DAMGO (Perkin Elmer, ES-542-C), as the radioligand, were used. The assay was carried out with 20 μg of membrane suspension, 1 nM of [^3H]-DAMGO in either absence or presence of either buffer or 10 μM Naloxone for total and non-specific binding, respectively. Binding buffer contained Tris-HCl 50 mM, MgCl2 5 mM at pH 7.4. Plates were incubated at 27° C. for 60 minutes. After the incubation period, the reaction mix was then transferred to MultiScreen HTS, FC plates (Millipore), filtered and plates were washed 3 times with ice-cold 10 mM Tris-HCL (pH 7.4). Filters were dried and counted at approximately 40% efficiency in a MicroBeta scintillation counter (Perkin-Elmer) using EcoScint liquid scintillation cocktail, preferably, transfected CHO-K1 cell membranes (20 μg) were incubated with 1 nM of [^3H]-DAMGO in assay buffer containing Tris-HCl 50 mM, MgCl2 5 mM at pH 7.4. NBS (non-specific binding) was measured by adding 10 μM Naloxone. The binding of the test compound was measured at five different concentrations. Plates were incubated at 27° C. for 60 minutes. After the incubation period, the reaction mix was then transferred to MultiScreen HTS, FC plates (Millipore), filtered and plates were washed 3 times with ice-cold 10 mM Tris-HCL (pH 7.4). Filters were dried and counted at approximately 40% efficiency in a MicroBeta scintillation counter (Perkin-Elmer) using EcoScint liquid scintillation cocktail.

Setting [2] is: human α2δ-1 enriched membranes, 15 nM [3H]-Gabapentin, read-out: Binding α2δ-1 (Ki).
[3] abbreviates: transfected CHO-K1 cell membranes, 1 nM [3H]-DAMGO, read-out: Binding μ (Ki).

Human α2δ-1 subunit of Cav2.2 calcium channel, sequence (P54289 25-1103): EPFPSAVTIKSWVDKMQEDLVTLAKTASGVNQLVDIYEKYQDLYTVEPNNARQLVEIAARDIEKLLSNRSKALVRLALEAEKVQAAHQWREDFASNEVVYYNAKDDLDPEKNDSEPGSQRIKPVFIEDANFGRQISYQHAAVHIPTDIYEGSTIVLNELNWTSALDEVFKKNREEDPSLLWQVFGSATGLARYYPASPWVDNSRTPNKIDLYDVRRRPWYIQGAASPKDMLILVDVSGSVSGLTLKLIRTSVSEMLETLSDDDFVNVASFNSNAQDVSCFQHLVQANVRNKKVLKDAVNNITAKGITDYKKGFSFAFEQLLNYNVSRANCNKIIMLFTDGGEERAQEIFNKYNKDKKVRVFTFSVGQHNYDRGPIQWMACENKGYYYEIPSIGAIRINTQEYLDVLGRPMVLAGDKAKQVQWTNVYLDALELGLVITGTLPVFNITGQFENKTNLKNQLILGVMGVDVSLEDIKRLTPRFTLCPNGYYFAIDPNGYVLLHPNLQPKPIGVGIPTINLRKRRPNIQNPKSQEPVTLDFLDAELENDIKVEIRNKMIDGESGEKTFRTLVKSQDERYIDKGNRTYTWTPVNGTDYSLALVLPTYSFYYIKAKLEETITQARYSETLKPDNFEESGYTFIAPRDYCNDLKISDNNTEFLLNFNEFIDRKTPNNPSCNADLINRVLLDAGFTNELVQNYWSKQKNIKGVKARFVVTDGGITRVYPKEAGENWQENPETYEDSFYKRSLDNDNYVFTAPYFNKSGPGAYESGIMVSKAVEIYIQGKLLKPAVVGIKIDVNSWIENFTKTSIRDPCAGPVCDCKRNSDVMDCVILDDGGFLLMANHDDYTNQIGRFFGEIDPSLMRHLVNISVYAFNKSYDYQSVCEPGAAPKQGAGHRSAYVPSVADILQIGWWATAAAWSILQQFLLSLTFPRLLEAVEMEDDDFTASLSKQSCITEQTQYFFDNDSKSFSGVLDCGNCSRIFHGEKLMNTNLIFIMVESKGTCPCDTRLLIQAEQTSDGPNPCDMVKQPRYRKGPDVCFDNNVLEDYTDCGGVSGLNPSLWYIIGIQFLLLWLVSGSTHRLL

Usually Ki stands for the equilibrium dissociation constant of an inhibitor or competing ligand from its target. On to `Cc1nnc(N(C)C)c2nn(-c3ccccc3OC(CCN(C)Cc3ccccc3)Cc3ccccc3)c(C)c12` (stereo not shown) [Example 75, 2-(2-((4-(benzyl(methyl)amino)-1-phenylbutan-2-yl)oxy)phenyl)-N,N,3,4-tetramethyl-2H-pyrazolo[3,4-d]pyridazin-7-amine], for which the Ki in assay [1] (setting [2]) was above 5000 nM; at human μ-opioid receptor (setting [3]) it was above 500 nM.
Consider `CNCCCC(Oc1ccccc1-n1nc2c(N(C)C)nnc(C)c2c1C)c1ccccc1` (stereo not shown) [Example 46, N,N,3,4-tetramethyl-2-(2-(4-(methylamino)-1-phenylbutoxy)phenyl)-2H-pyrazolo[3,4-d]pyridazin-7-amine], for which the Ki is 500 to 5000 nM in assay [1] (setting [2]) and above 500 nM at human μ-opioid receptor (setting [3]).
`CNCCC(Oc1ccccc1-n1nc2c(N3CCC3)nnc(C)c2c1C)c1ccccc1` (stereo not shown) [Example 39, 3-(2-(7-(azetidin-1-yl)-3,4-dimethyl-2H-pyrazolo[3,4-d]pyridazin-2-yl)phenoxy)-N-methyl-3-phenylpropan-1-amine]: the figures for the Ki (in assay [1] (setting [2]); at human μ-opioid receptor (setting [3])) were 500 to 5000 nM and above 500 nM, respectively.
With `Cc1nnc(N(C)C)c2nn(-c3ccccc3OC3CCN(CCc4ccccc4)C3)c(C)c12` (stereo not shown) [Example 55, N,N,3,4-tetramethyl-2-(2-((1-phenethylpyrrolidin-3-yl)oxy)phenyl)-2H-pyrazolo[3,4-d]pyridazin-7-amine], the results for the Ki (in assay [1]; on human μ-opioid receptor) were 500 to 5000 nM and 100 to 500 nM, respectively.
Take `CNCCC(Oc1ccccc1-n1nc2c(N3CC(OC)C3)nnc(C)c2c1C)c1ccccc1` (stereo not shown) [Example 35, 3-(2-(7-(3-methoxyazetidin-1-yl)-3,4-dimethyl-2H-pyrazolo[3,4-d]pyridazin-2-yl)phenoxy)-N-methyl-3-phenylpropan-1-amine]: the Ki in assay [1] (setting [2]) is 500 to 5000 nM; at human μ-opioid receptor (setting [3]), above 500 nM.
On to `CNCCC(Oc1cc(NC(C)=O)ccc1-n1nc2c(N(C)C)nnc(C)c2c1C)c1ccccc1` (stereo not shown) [Example 82, N-(4-(7-(dimethylamino)-3,4-dimethyl-2H-pyrazolo[3,4-d]pyridazin-2-yl)-3-(3-(methylamino)-1-phenylpropoxy)phenyl)acetamide], for which the Ki was 500 to 5000 nM in assay [1] (setting [2]) and above 500 nM at human μ-opioid receptor (setting [3]).
In the case of `Cc1nnc(N(C)C)c2nn(-c3ccccc3OC(c3ccccc3)C3CNC3)c(C)c12` (stereo not shown) [Example 34, 2-(2-(azetidin-3-yl(phenyl)methoxy)phenyl)-N,N,3,4-tetramethyl-2H-pyrazolo[3,4-d]pyridazin-7-amine], the Ki is 500 to 5000 nM in assay [1] (setting [2]) and above 500 nM on human μ-opioid receptor (setting [3]).
Turning to `CNCCC(Oc1cc(C#N)ccc1-n1nc2c(N(C)C)nnc(C)c2c1C)c1ccccc1` (stereo not shown) [Example 85, 4-(7-(Dimethylamino)-3,4-dimethyl-2H-pyrazolo[3,4-d]pyridazin-2-yl)-3-(3-(methylamino)-1-phenylpropoxy)benzonitrile], the Ki was above 5000 nM in assay [1] (setting [2]) and above 500 nM on human μ-opioid receptor (setting [3]).
As for `Cc1nnc(N(C)C)c2nn(-c3ccccc3OC(CCNCC3CC3)c3ccccc3)c(C)c12` (stereo not shown) [Example 20, 2-(2-(3-((cyclopropylmethyl)amino)-1-phenylpropoxy)phenyl)-N,N,3,4-tetramethyl-2H-pyrazolo[3,4-d]pyridazin-7-amine], the Ki was in the range of 500 to 5000 nM in assay [1] and 100 to 500 nM on human μ-opioid receptor.
In the case of `Cc1nnc(N(C)C)c2nn(-c3ccccc3OC3CCN(Cc4ccccc4)C3)c(C)c12` (stereo not shown) [Example 8, 2-(2-((1-benzylpyrrolidin-3-yl)oxy)phenyl)-N,N,3,4-tetramethyl-2H-pyrazolo[3,4-d]pyridazin-7-amine], the Ki was 500 to 5000 nM in assay [1] (setting [2]) and above 500 nM at human μ-opioid receptor (setting [3]).
In the case of `CNCCC(Oc1ccc(NC(C)=O)cc1-n1nc2c(N(C)C)nnc(C)c2c1C)c1ccccc1` (stereo not shown) [Example 83, N-(3-(7-(dimethylamino)-3,4-dimethyl-2H-pyrazolo[3,4-d]pyridazin-2-yl)-4-(3-(methylamino)-1-phenylpropoxy)phenyl)acetamide], the Ki was 500 to 5000 nM in assay [1] (setting [2]) and above 500 nM at human μ-opioid receptor (setting [3]).
The corresponding values for `CNCCC(Oc1ccccc1-n1nc2c(N(C)CCN(C)C)nnc(C)c2c1C)c1ccccc1` (stereo not shown) [Example 62, N1-(3,4-dimethyl-2-(2-(3-(methylamino)-1-phenylpropoxy)phenyl)-2H-pyrazolo[3,4-d]pyridazin-7-yl)-N1,N2,N2-trimethylethane-1,2-diamine] are 500 to 5000 nM and above 500 nM.
As to `Cc1nnc(N(C)C)c2nn(-c3ccccc3OCC3CCN(Cc4ccccc4)CC3)c(C)c12` [Example 57, 2-(2-((1-benzylpiperidin-4-yl)methoxy)phenyl)-N,N,3,4-tetramethyl-2H-pyrazolo[3,4-c]pyridazin-7-amine], the Ki was above 5000 nM in assay [1] (setting [2]) and above 500 nM on human μ-opioid receptor (setting [3]).
For `CNCCC(Oc1ccc(N2CCCC2=O)cc1-n1nc2c(N(C)C)nnc(C)c2c1C)c1ccccc1` (stereo not shown) [Example 81, 1-(3-(7-(dimethylamino)-3,4-dimethyl-2H-pyrazolo[3,4-d]pyridazin-2-yl)-4-(3-(methylamino)-1-phenylpropoxy)phenyl)pyrrolidin-2-one], the Ki in assay [1] (setting [2]) is above 5000 nM; at human μ-opioid receptor (setting [3]), above 500 nM.
For `CNCCC(Oc1ccc(C#N)cc1-n1nc2c(N(C)C)nnc(C)c2c1C)c1ccccc1` (stereo not shown) [Example 86, 3-(7-(dimethylamino)-3,4-dimethyl-2H-pyrazolo[3,4-d]pyridazin-2-yl)-4-(3-(methylamino)-1-phenylpropoxy)benzonitrile] the same measures were above 5000 nM and above 500 nM.
Turning to `CNCCC(Oc1ccccc1-n1nc2c(N3CCCC3)nnc(C)c2c1C)c1ccccc1` (stereo not shown) [Example 36, 3-(2-(3,4-dimethyl-7-(pyrrolidin-1-yl)-2H-pyrazolo[3,4-d]pyridazin-2-yl)phenoxy)-N-methyl-3-phenylpropan-1-amine], the Ki in assay [1] (setting [2]) was 500 to 5000 nM; at human μ-opioid receptor (setting [3]), above 500 nM.
`CNCCC(Oc1cc(Br)ccc1-n1nc2c(N(C)C)nnc(C)c2c1C)c1ccccc1` (stereo not shown) [Example 25, 2-(4-bromo-2-(3-(methylamino)-1-phenylpropoxy)phenyl)-N,N,3,4-tetramethyl-2H-pyrazolo[3,4-d]pyridazin-7-amine]: the Ki is 500 to 5000 nM in assay [1] (setting [2]) and above 500 nM on human μ-opioid receptor (setting [3]).
In the case of `CNCc1cccc(COc2ccccc2-n2nc3c(N(C)C)nnc(C)c3c2C)c1` [Example 45, N,N,3,4-tetramethyl-2-(2-((3-((methylamino)methyl)benzyl)oxy)phenyl)-2H-pyrazolo[3,4-d]pyridazin-7-amine], the figures for the Ki (in assay [1] (setting [2]); at human μ-opioid receptor (setting [3])) were 500 to 5000 nM and above 500 nM, respectively.
As to `CNCC[C@H](Oc1ccccc1-n1nc2c(N(C)C)nnc(C)c2c1C)c1ccccc1` [Example 99, (S)-N,N,3,4-Tetramethyl-2-(2-(3-(methylamino)-1-phenylpropoxy)phenyl)-2H-pyrazolo[3,4-d]pyridazin-7-amine], the results for the Ki (in assay [1]; at human μ-opioid receptor) were 500 to 5000 nM and 100 to 500 nM, respectively.
As for `Cc1nnc(N(C)C)c2nn(-c3ccccc3OC(C)CCNCc3ccccc3)c(C)c12` (stereo not shown) [Example 12, 2-(2-((4-(benzylamino)butan-2-yl)oxy)phenyl)-N,N,3,4-tetramethyl-2H-pyrazolo[3,4-d]pyridazin-7-amine], the results for the Ki (in assay [1] (setting [2]); at human μ-opioid receptor (setting [3])) were 500 to 5000 nM and above 500 nM, respectively.
In the case of `Cc1nnc(N(C)C)c2nn(-c3ccccc3OC(CCNCCF)c3ccccc3)c(C)c12` (stereo not shown) [Example 73, 2-(2-(3-((2-Fluoroethyl)amino)-1-phenylpropoxy)phenyl)-N,N,3,4-tetramethyl-2H-pyrazolo[3,4-d]pyridazin-7-amine], the inhibition constant Ki in assay [1] was 500 to 5000 nM; at human μ-opioid receptor it was below 100 nM.
As for `CCCNCCC(Oc1ccccc1-n1nc2c(N(C)C)nnc(C)c2c1C)c1ccccc1` (stereo not shown) [Example 24, N,N,3,4-tetramethyl-2-(2-(1-phenyl-3-(propylamino)propoxy)phenyl)-2H-pyrazolo[3,4-d]pyridazin-7-amine], the Ki was in the range of 500 to 5000 nM in assay [1] and 100 to 500 nM at human μ-opioid receptor.
For the compound `CNCCC(Oc1ccccc1-n1nc2c(C(C)C)nnc(C)c2c1C)c1ccccc1` (stereo not shown) [Example 70, 3-(2-(7-isopropyl-3,4-dimethyl-2H-pyrazolo[3,4-d]pyridazin-2-yl)phenoxy)-N-methyl-3-phenylpropan-1-amine], the Ki in assay [1] (setting [2]) was above 5000 nM; at human μ-opioid receptor (setting [3]), above 500 nM.

For the origin of these results see patent US10562908B2, “Ortho substituted phenylpyrazolo- and phenylpyrrolo-pyridazine derivatives having multimodal activity against pain” (priority 2016, dated 2020).
